Experiments:
RET-V804M = RET-V804M (Homo sapiens, UniProt P07949, V804M); assay: RET inhibition experiment (HTRF KinEASE-TK kit), mutant RET-V804M; type: biochemical; conditions: read-out: The IC50 (nM) for inhibiting V804M
Procedure, shortened: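 Enzyme was pre-incubated with compound at room temperature for 30 min, then substrate and ATP were added for a 40 min reaction. HTRF signal was read after 45 min with TK antibody-cryptate and streptavidin-XL665. IC50 came from a four-parameter fit of percent inhibition against DMSO and no-enzyme controls.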

RET-CCDC6 = target: T1, RET-CCDC6 (Homo sapiens, UniProt P07949); assay: RET inhibition experiment (HTRF KinEASE-TK kit), fusion-type RET enzyme; type: biochemical; conditions: read-out: The IC50 (nM) for inhibiting RET-CCDC6
T1 construct: CCDC6 fusion partner (Q16204 for human); the other entry of the earlier key: CCDC6 (Q16204, Coiled-coil domain-containing protein 6)
T1 sequence (P07949 with tags, fused parts or gaps): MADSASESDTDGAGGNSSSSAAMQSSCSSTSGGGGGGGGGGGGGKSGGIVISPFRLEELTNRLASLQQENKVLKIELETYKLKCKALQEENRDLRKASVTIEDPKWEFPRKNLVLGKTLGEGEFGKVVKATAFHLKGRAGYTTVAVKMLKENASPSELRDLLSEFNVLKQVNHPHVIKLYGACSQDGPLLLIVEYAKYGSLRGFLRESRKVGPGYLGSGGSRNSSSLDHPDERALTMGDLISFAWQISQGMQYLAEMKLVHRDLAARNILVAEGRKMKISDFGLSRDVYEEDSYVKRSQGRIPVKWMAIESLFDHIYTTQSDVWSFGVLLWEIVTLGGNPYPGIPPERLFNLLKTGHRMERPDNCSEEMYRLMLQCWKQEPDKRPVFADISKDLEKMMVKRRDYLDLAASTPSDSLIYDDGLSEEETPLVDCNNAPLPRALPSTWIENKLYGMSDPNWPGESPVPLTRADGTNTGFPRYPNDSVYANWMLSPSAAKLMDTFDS
Protocol: Experimental method: […] After incubation at room temperature for 40 min, TK antibody-cryptate and streptavidin-XL665 were added, and the test was performed after incubation at room temperature for 45 min. With the solvent group (DMSO) as the negative control and the buffer group (without RET enzyme) as the blank control, the relative inhibitory activity percentages (i.e., inhibition rates) of different concentrations of the compounds were computed as per the following formula: […] The relative inhibitory activity percentages of different concentrations of the compounds were plotted with respect to the compound concentrations, and the curve was fitted according to a four-parameter model to compute the IC50 value as per the following formula: y=min+(max-min)/(1+(x/IC50)^(-Hillslope)) where y is the relative inhibitory activity percentage, max is the maximum value of the fitted curve, min is the minimum value of the fitted curve, x is the logarithmic concentration of the compound, and Hillslope is the slope of the curve.

RET-V804M, sequence (P07949 29-1114 V804M): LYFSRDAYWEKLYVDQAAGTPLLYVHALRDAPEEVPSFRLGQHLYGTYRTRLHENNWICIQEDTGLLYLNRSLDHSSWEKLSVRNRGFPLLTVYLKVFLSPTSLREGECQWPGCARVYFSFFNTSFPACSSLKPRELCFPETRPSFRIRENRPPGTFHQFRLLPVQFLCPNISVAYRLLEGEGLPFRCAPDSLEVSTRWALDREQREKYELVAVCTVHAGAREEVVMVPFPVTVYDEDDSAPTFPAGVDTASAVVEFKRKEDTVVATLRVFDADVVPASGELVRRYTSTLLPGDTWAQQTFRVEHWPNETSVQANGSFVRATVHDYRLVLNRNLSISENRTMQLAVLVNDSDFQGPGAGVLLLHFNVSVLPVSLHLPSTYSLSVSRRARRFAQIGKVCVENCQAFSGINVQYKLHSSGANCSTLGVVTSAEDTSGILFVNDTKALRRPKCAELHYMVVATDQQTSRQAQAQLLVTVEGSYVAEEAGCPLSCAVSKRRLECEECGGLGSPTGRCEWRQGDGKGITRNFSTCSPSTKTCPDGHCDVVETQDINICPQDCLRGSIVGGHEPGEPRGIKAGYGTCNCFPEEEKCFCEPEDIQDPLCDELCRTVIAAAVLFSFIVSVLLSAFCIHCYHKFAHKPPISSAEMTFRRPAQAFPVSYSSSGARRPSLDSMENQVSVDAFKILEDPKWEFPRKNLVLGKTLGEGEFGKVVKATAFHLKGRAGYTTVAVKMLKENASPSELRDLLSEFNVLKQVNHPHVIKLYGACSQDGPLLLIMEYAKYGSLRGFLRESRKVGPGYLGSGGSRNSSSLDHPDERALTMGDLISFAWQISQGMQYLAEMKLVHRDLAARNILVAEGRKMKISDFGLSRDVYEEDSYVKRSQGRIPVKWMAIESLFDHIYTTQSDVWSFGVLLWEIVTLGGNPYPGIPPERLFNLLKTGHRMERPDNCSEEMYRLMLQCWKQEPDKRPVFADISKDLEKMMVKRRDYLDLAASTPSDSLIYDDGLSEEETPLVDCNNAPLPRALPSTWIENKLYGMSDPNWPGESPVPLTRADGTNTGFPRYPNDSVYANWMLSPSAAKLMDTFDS

SMILES: Cc1cc(Nc2cc(C)[nH]n2)nc(-c2ccc(N3CC4CC(C3)N4Cc3ccc(-n4cc(F)cn4)nc3)nc2)n1 [Compound 17, 2-(6-(6-((6-(4-fluoro-1H-pyrazol-1-yl)pyridin-3-yl)methyl)-3,6-diazabicyclo[3.1.1]heptan-3-yl)pyridin-3-yl)-6-methyl-N-(5-methyl-1H-pyrazol-3-yl)pyrimidin-4-amine]
- IC50 (RET-V804M): 1.03 ± 0.47 nM
- IC50 (RET-CCDC6): 2.5 ± 0.55 nM

Source: US20220144847A1, “HETEROCYCLIC COMPOUND, PHARMACEUTICAL COMPOSITION COMPRISING SAME, PREPARATION METHOD THEREFOR, AND USE THEREOF” (Sichuan Kelun-Biotech Biopharmaceutical Co., Ltd., priority 2019, published 2022)
